The target in this experiment is T1, mineralo-corticoid receptor of the rat kidney (Rattus norvegicus, UniProt P22199).
T1 construct: The kidneys were then removed, decapsulated and homogenized at 0° C; from tissue; host or cells: kidney of adrenalectomized male Sprague-Dawley EOPS rats, 105,000 g supernatant (cytosol)
T1 sequence (P22199 1-981): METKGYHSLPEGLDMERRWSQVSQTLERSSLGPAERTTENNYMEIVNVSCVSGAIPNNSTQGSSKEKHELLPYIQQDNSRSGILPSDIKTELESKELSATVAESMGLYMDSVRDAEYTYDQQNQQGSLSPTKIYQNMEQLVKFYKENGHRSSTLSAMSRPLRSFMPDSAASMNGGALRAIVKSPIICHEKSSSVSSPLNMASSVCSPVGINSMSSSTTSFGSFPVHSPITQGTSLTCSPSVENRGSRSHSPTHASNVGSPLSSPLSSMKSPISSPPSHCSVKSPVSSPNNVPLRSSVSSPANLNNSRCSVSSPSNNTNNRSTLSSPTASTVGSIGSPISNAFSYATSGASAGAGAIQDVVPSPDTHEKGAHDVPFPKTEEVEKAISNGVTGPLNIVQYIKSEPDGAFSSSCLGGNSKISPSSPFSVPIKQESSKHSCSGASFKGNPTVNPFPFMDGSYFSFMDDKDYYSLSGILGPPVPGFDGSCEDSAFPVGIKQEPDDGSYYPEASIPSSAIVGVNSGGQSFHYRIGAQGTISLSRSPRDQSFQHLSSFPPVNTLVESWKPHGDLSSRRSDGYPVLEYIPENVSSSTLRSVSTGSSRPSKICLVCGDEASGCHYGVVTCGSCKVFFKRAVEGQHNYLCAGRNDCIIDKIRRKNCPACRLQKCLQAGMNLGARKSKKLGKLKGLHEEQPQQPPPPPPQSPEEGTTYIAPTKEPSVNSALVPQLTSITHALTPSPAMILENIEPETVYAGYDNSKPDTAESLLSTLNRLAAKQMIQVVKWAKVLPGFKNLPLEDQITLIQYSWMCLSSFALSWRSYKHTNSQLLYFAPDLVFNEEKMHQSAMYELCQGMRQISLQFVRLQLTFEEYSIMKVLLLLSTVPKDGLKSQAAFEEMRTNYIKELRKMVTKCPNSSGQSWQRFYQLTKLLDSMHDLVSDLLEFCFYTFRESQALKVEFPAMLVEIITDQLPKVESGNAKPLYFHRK
In words: Anti-aldosterone activity: displacement of tritiated aldosterone from the mineralo-corticoid receptor of the rat kidney (relative liaison affinity). The experiment is classed as binding. The conditions noted are these: vs cold aldosterone as reference hormone, rat kidney cytosol. How it is done:
Study of the anti-aldosterone activity of the mineralo-corticoid receptor of the rat kidney
Male Sprague-Dawley EOPS rats weighing 140 to 160 g, suprarenalectomized 4 to 6 days earlier, were killed and their kidneys were perfused in situ with 50 ml of Tris 10 mM-saccharose 0.25M buffer, HCl pH 7.4. The kidneys were then removed, decapsulated and homogenized at 0° C. with a Potter polytetrafluoroethylene glass (1 g of tissue for 3 ml of buffer). The homogenate was centrifuged for 10 minutes at 800 g at 0° C. To eliminate the fixation of the tritiated aldosterone on the glucocorticoid receptor, 11β,17β-dihydroxy-17α-(1-propynyl)-Δ^1,4,6 -androstatrien-3-one which fixes uniquely on the glucocorticoid receptor was added to the supernatant at a final concentration of 10^-6 M. This supernatant was ultracentrifuged at 105,000 g for 60 minutes at 0° C. and aliquots of the supernatant were incubated at 0° C. with a constant concentration (T) of tritiated aldosterone in the presence of increasing concentrations (0-2500×10^-9 M) of cold aldosterone or of the cold product under study. After an incubation time (t), the concentration of tritiated aldosterone bound (B) was measured by the technique of adsorption on charcoal-dextran.
The calculation of the relative liaison affinity (RLA) was carried out as follows: The two following curves were drawn: the percentage of tritiated hormone bonded B/T as a function of the logarithm of the concentration of the cold reference hormone, and B/T as a function of the logarithm of the concentration of the cold product under test. The straight line of the equation I50 =(B/T max+B/T min)/2 was determine B/T max=percentage of the tritiated hormone bonded for an incubation of this triated hormone at the concentration (T), B/T min=percentage of the tritiated hormone bonded for an incubation of this tritiated hormone at the concentration (T) in the presence of a great excess of cold hormone (2500.10^-9 M). The intersections of the straight line I50 and the curves enabled the concentrations of the cold reference hormone (CH) and of the cold product tested (CX) to be evaluated which inhibited by 50% the bonding of the tritiated hormone on the receptor. The relative liaison affinity (RAL) of the product tested is determined by the equation: [formula] The following results were obtained;

The mark [1] stands for this setting: incubation time at 0° C.: 1 hour.
Where [2] appears, read: incubation time at 0° C.: 24 hours.

For the compound `C#C[C@]12CCC(=O)C=C1CC[C@@H]1[C@@H]2CC[C@@]2(C)[C@H]1CC[C@@]21CCC(=O)O1` [Example 1, Gamma-lactone of 10β-ethynyl-17β-hydroxy-3-oxo-19-nor-17α-Δ^4-pregnen 21-carboxylic acid], the “relative liaison affinity (RLA)” value turned out to be 125 under setting [1] and 65 under setting [2].
Regarding `CC#C[C@]12CCC(=O)C=C1CC[C@@H]1[C@@H]2CC[C@@]2(C)[C@H]1CC[C@@]21CCC(=O)O1` [Example 3, γ-lactone of 17β-hydroxy-3-oxo-10β-(1-propynyl)-19-nor-17α-Δ^4-pregnene-21-carboxylic acid], the “relative liaison affinity (RLA)” value was 50 under setting [1] and 43 under setting [2].

(Values after patent US4987128A, “Novel 10β-alkynyl-steroids” (Roussel Uclaf, priority 1986, dated 1991).)
